In PubChem BioAssay AID330 (DTP/NCI, 2004):
“And” between values parts separate entries of the source, which are not always exact repeats. Identical values can stand only once. Inconclusive results and toxic doses are left out. The calls were made as follows: active = survival T/C of 150% or more; inactive = T/C below 125% in these data.

Tested on: P388 leukemia ip, CD2F1 mice, survival T/C
Assay: NCI In Vivo Anticancer Drug Screen. Data for tumor model P388 Leukemia (intraperitoneal) in CD2F1 (CDF1) mice
Conditions: endpoint: median survival time, higher = longer survival
Summary of the method: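 Mice carrying the transplanted tumor received test compound or vehicle. Survival was recorded in each group, and the value is the treated-group measurement divided by that of the vehicle-treated control group.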

[1] = dose: 60.0 mg/kg/injection, schedule: Q01DX005 (ip), vehicle: saline with Tween-80
[2] = dose: 120.0 mg/kg/injection, schedule: Q01DX005 (ip), vehicle: saline with Tween-80
[3] = dose: 240.0 mg/kg/injection, schedule: Q01DX005 (ip), vehicle: saline with Tween-80
[4] = dose: 50.0 mg/kg/injection, schedule: Q01DX005 (ip), vehicle: saline
[5] = dose: 100.0 mg/kg/injection, schedule: Q01DX005 (ip), vehicle: saline
[6] = dose: 50.0 mg/kg/injection, schedule: Q01DX009 (ip), vehicle: saline with Tween-80
[7] = dose: 100.0 mg/kg/injection, schedule: Q04DX003 (ip), vehicle: saline with Tween-80
[8] = dose: 12.5 mg/kg/injection, schedule: Q01DX005 (ip), vehicle: saline with Tween-80
[9] = dose: 25.0 mg/kg/injection, schedule: Q01DX005 (ip), vehicle: saline with Tween-80
[10] = dose: 50.0 mg/kg/injection, schedule: Q01DX005 (ip), vehicle: saline with Tween-80
[11] = dose: 100.0 mg/kg/injection, schedule: Q01DX005 (ip), vehicle: saline with Tween-80
[12] = dose: 200.0 mg/kg/injection, schedule: Q01DX005 (ip), vehicle: saline with Tween-80
[13] = dose: 50.0 mg/kg/injection, schedule: Q01DX005 (ip), vehicle: Klucel (hydroxypropylcellulose) (HPC)
[14] = dose: 100.0 mg/kg/injection, schedule: Q01DX005 (ip), vehicle: Klucel (hydroxypropylcellulose) (HPC)
[15] = dose: 200.0 mg/kg/injection, schedule: Q01DX005 (ip), vehicle: Klucel (hydroxypropylcellulose) (HPC)

Measured: T/C

CN=C(N)N/N=C(\C)c1ccc2ccccc2c1
inactive: dose: 12.5 mg/kg/injection, schedule: Q04DX002 (ip), vehicle: saline 103 % of control | dose: 25.0 mg/kg/injection, schedule: Q04DX002 (ip), vehicle: saline 101 % of control | dose: 50.0 mg/kg/injection, schedule: Q04DX002 (ip), vehicle: saline 112 % of control

N#Cc1c(-c2ccccc2)ssc1=S
inactive: [1] 104 % of control | [2] 103 % of control | [3] 106 % of control

CC(CC(=O)O)C(C(=O)O)C(=O)O (configuration not stated)
inactive: [4] 104 % of control | [5] 101 % of control

c1ccc(C23CC2COP3(c2ccccc2)(c2ccccc2)c2ccccc2)cc1 (configuration not stated)
inactive: dose: 6.25 mg/kg/injection, schedule: Q01DX009 (ip), vehicle: suspension in saline 90 % of control | dose: 12.5 mg/kg/injection, schedule: Q01DX009 (ip), vehicle: suspension in saline 98 % of control | dose: 25.0 mg/kg/injection, schedule: Q01DX009 (ip), vehicle: suspension in saline 93 % of control

CCC(c1ccc2cc(OC)ccc2c1)C(C)(C)C(=O)F (configuration not stated)
inactive: dose: 25.0 mg/kg/injection, schedule: Q04DX003 (ip), vehicle: saline with Tween-80 104 % of control | dose: 33.0 mg/kg/injection, schedule: Q01DX009 (ip), vehicle: saline with Tween-80 104 % of control | [6] 104 % of control | dose: 50.0 mg/kg/injection, schedule: Q04DX003 (ip), vehicle: saline with Tween-80 104 % of control | dose: 75.0 mg/kg/injection, schedule: Q01DX009 (ip), vehicle: saline with Tween-80 122 % of control | [7] 87 % of control

CCOC(=O)c1sc(=S)n(C)c1C
inactive: [8] 100 % of control | [9] 103 % of control | [10] 102 % of control and 104 % of control

COc1cccc2c1C(=O)c1c(OC)c(C)cc(OC)c1C2=O
inactive: dose: 1.56 mg/kg/injection, schedule: Q01DX009 (ip), vehicle: water 100 % of control | dose: 3.13 mg/kg/injection, schedule: Q01DX009 (ip), vehicle: water 107 % of control | dose: 6.25 mg/kg/injection, schedule: Q01DX009 (ip), vehicle: water 110 % of control | dose: 12.5 mg/kg/injection, schedule: Q01DX009 (ip), vehicle: water 110 % of control | dose: 25.0 mg/kg/injection, schedule: Q01DX009 (ip), vehicle: water 110 % of control

Cc1sc2c(c1C)c(=O)[nH]c1c(C#N)c(-c3ccc(Cl)cc3)cn12
inactive: [1] 86 % of control and 90 % of control | [2] 89 % of control | [3] 94 % of control

CN(C)CC(O)C(=O)O (configuration not stated)
inactive: dose: 25.0 mg/kg/injection, schedule: Q01DX005 (ip), vehicle: saline 96 % of control | [4] 98 % of control | [5] 95 % of control | dose: 200.0 mg/kg/injection, schedule: Q01DX005 (ip), vehicle: saline 96 % of control

NC(=S)N/N=C/c1cc(=O)c2cc(Cl)ccc2o1
inactive: [10] 94 % of control | [11] 93 % of control | [12] 92 % of control

COc1cc(OC(=O)NCCCl)cc(OC)c1OC
inactive: [13] 101 % of control | [14] 108 % of control | [15] 92 % of control

O=C(O)C1=C/C(=C(/c2ccccc2)c2cc(C(=O)O)c(O)c3ccccc23)c2ccccc2C1=O
inactive: dose: 50.0 mg/kg/injection, schedule: Q01DX009 (ip), vehicle: saline 99 % of control | dose: 60.0 mg/kg/injection, schedule: Q01DX005 (ip), vehicle: saline 104 % of control | dose: 100.0 mg/kg/injection, schedule: Q01DX009 (ip), vehicle: saline 100 % of control | dose: 120.0 mg/kg/injection, schedule: Q01DX005 (ip), vehicle: saline 103 % of control | dose: 200.0 mg/kg/injection, schedule: Q01DX009 (ip), vehicle: saline 103 % of control | dose: 240.0 mg/kg/injection, schedule: Q01DX005 (ip), vehicle: saline 95 % of control

CC(C)(C)OC(=O)NC(N)=NCCCC(NC(=O)OC(C)(C)C)C(=O)O (configuration not stated)
inactive: [10] 100 % of control | [11] 103 % of control | [12] 102 % of control

O=C(CSC(=S)N1CCCCC1)c1ccccc1
inactive: dose: 12.5 mg/kg/injection, schedule: Q01DX009 (ip), vehicle: distilled water + Tween-80 95 % of control | dose: 25.0 mg/kg/injection, schedule: Q01DX009 (ip), vehicle: distilled water + Tween-80 101 % of control | dose: 50.0 mg/kg/injection, schedule: Q01DX009 (ip), vehicle: distilled water + Tween-80 100 % of control | dose: 100.0 mg/kg/injection, schedule: Q01DX009 (ip), vehicle: distilled water + Tween-80 101 % of control | dose: 200.0 mg/kg/injection, schedule: Q01DX009 (ip), vehicle: distilled water + Tween-80 99 % of control

CN(C)C(=S)NCc1ccccc1
inactive: [7] 100 % of control | dose: 200.0 mg/kg/injection, schedule: Q04DX003 (ip), vehicle: saline with Tween-80 100 % of control

CCCCCCCCCCCc1n(Cc2ccccc2)c2ccccc2[n+]1C
inactive: dose: 0.25 mg/kg/injection, schedule: Q01DX009 (ip), vehicle: saline sonified 104 % of control | dose: 0.5 mg/kg/injection, schedule: Q01DX009 (ip), vehicle: saline sonified 109 % of control

CCC[C@H]1[C@H](CCC)[C@@]2(OC(=O)C3=C2CCC=C3)[C@]12OC(=O)C1=C2CCC=C1
inactive: dose: 11.25 mg/kg/injection, schedule: Q01DX005 (ip), vehicle: Klucel (hydroxypropylcellulose) (HPC) 98 % of control | dose: 22.5 mg/kg/injection, schedule: Q01DX005 (ip), vehicle: Klucel (hydroxypropylcellulose) (HPC) 90 % of control | dose: 45.0 mg/kg/injection, schedule: Q01DX005 (ip), vehicle: Klucel (hydroxypropylcellulose) (HPC) 88 % of control | dose: 90.0 mg/kg/injection, schedule: Q01DX005 (ip), vehicle: Klucel (hydroxypropylcellulose) (HPC) 100 % of control

C/C(=N/NC(N)=O)c1ccc2c3c(cc(Br)c2c1)CCCC3
inactive: dose: 6.25 mg/kg/injection, schedule: Q01DX005 (ip), vehicle: saline with Tween-80 99 % of control | [8] 99 % of control | [9] 95 % of control | [10] 91 % of control

C1CN(SSN2CCOCC2)CCO1
inactive: dose: 12.5 mg/kg/injection, schedule: Q01DX009 (ip), vehicle: saline with Tween-80 113 % of control | dose: 25.0 mg/kg/injection, schedule: Q01DX009 (ip), vehicle: saline with Tween-80 104 % of control | [6] 100 % of control | dose: 100.0 mg/kg/injection, schedule: Q01DX009 (ip), vehicle: saline with Tween-80 100 % of control

COc1ccc2ccccc2c1C(=O)CCCc1ccccc1
inactive: dose: 25.0 mg/kg/injection, schedule: Q01DX009 (ip), vehicle: other 98 % of control | dose: 50.0 mg/kg/injection, schedule: Q01DX009 (ip), vehicle: other 98 % of control | dose: 100.0 mg/kg/injection, schedule: Q01DX009 (ip), vehicle: other 98 % of control | dose: 200.0 mg/kg/injection, schedule: Q01DX009 (ip), vehicle: other 92 % of control | dose: 400.0 mg/kg/injection, schedule: Q01DX009 (ip), vehicle: other 105 % of control

COC(=O)[C@@H]1O[C@H]1c1ccccn1
inactive: dose: 25.0 mg/kg/injection, schedule: Q01DX005 (ip), vehicle: Klucel (hydroxypropylcellulose) (HPC) 96 % of control | [13] 97 % of control | [14] 100 % of control | [15] 97 % of control
